Experimental data: US20250319056A1, “METHODS FOR TREATING CANCER” (THE TRUSTEES OF INDIANA UNIVERSITY, priority 2024, published 2025)
Like-named read-outs stand apart in the source and are kept apart here.

What was measured:
mHSP60/10 = target: T1, mHSP60/10 (Homo sapiens, UniProt P10809); assay: mHSP60/10-mediated dMDH refolding assay; type: biochemical
T1 construct: Processed human HSP60 (mHSP60—that would be in mitochondria) was expressed in Rosetta™ 2 (DE3) E. coli; octa-Histidine tag (TEV-cleavable) (N, cleaved yes); made in house; host or cells: E. coli Rosetta 2 (DE3) for mHSP60; Rosetta 2 (DE3) pLysS for HSP10

GroEL/ES = target: T2, GroEL/ES (Escherichia coli, UniProt P0A6F5); assay: GroEL/ES-dMDH refolding assay; type: biochemical, E. coli
T2 construct: made in house; host or cells: NEB 5-alpha E. coli for GroEL; E. coli BL21 (DE3) for GroES

NCI-60 cancer cell panel [1] = assay: NCI-60 panel single-dose cell growth screen; type: cell-based; settings: single dose 10 μM; 0 = cytostatic, -100% = cytocidal, +100% = growth
Protocol: FIGS. 10A-10J show cell growth results for 10 lead candidate inhibitors (compound 162, FIG. 10A; compound 163, FIG. 10B; compound 164, FIG. 10C; compound 4, FIG. 10D; compound 165, FIG. 10E; compound 139, FIG. 10F; compound 132, FIG. 10G; compound 143, FIG. 10H; compound 147, FIG. 10I; compound 128, FIG. 10J) tested at 10 μM against the NCI cancer cell panel. Zero indicates no cells growth/death from what was initially plated (cytostatic inhibition). −100% indicates […] (cytocidal inhibition). +100% indicates cell growth.
In a previous study evaluating the anti-cancer effects of ABK inhibitors, the National Cancer Institute (NCI) database was explored for existing cytotoxicity results for any compounds bearing α,β-unsaturated ketone moieties against the comprehensive NCI-60 cancer cell panel. […] The HQ-NAH and NF-NAH inhibitor library was explored based on the similarity to Nifuroxazide's scaffold. […] Initial screening was performed at a single concentration of 10 μM, and cell growth results are presented in aggregate based on cancer cell origin (FIGS. 10A-10J).

DLD-1 cells = assay: AlamarBlue cell viability assay, DLD-1 colon cancer cells; type: cell-based; settings: Homo sapiens, 48 h with compound, ^BP = curve baseline plateaued between ~10-20%, read-out: Human Cell Viability EC50 Colon Cancer (DLD1)
[2] = AlamarBlue cell viability assay, non-cancerous colon FHC cells; settings: human, FHC non-cancerous colon cells, Human Cell Viability CC50 Colon (FHC), non-cancerous colon cells, AlamarBlue, 48 h
HT-29 cells = assay: AlamarBlue cell viability assay, HT-29 colon cancer cells; type: cell-based; settings: Homo sapiens, 48 h with compound, ^BP = curve baseline plateaued between ~10-20%
[3] = AlamarBlue cell viability assay, non-cancerous intestine FHs-74Int cells; settings: human, FHs-74Int non-cancerous intestine cells, Human Cell Viability CC50 Intestine (FHs 74Int), non-cancerous intestine cells, AlamarBlue, 48 h
HCT-116 cells = assay: AlamarBlue cell viability assay, HCT-116 colon cancer cells; type: cell-based, human; settings: for Average Selectivity Index: CC50 non-cancer cells (FHC, FHs 74Int) compared to EC50 HCT-116; for EC50: read-out: Human Cell Viability EC50 Colon Cancer (HCT 116)
NCI-60 cancer cell panel [4] = assay: NCI-60 panel dose-response cell growth testing; type: cell-based; settings: follow-up dose response, range across NCI-60 cell lines
Source text: FIGS. 11A-11G show cell growth results in dose-response for 7 lead candidate inhibitors (compound 162, FIG. 11A; compound 164, FIG. 11B; compound 128, FIG. 11C compound 165, FIG. 11D; compound 139, FIG. 11E; compound 143, FIG. 11F; compound 147, FIG. 11G) from initial single-dose NCI-60 screen.
Therefore, they appeared to act in a cytocidal manner.

[5] = denatured malate dehydrogenase client, read-out: IC50 mHSP60/10-dMDH refolding
[6] = Homo sapiens, HCT-116, 48 h, AlamarBlue, 48 h with compound

T1 sequence (P10809 27-573): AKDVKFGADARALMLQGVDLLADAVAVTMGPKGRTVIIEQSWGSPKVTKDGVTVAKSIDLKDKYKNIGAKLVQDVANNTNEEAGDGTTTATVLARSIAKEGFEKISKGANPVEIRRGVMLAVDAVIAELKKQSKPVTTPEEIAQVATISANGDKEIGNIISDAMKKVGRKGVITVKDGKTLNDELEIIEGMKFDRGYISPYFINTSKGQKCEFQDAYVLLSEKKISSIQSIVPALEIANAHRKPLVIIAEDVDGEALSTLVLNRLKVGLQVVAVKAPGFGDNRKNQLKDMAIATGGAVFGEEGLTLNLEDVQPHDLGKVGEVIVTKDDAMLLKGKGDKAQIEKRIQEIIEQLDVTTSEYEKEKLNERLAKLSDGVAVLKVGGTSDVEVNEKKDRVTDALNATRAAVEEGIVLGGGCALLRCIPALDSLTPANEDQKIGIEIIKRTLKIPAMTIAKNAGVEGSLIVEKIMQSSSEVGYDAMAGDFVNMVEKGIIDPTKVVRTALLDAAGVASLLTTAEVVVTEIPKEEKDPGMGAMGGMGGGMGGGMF
T2 sequence (P0A6F5 2-548): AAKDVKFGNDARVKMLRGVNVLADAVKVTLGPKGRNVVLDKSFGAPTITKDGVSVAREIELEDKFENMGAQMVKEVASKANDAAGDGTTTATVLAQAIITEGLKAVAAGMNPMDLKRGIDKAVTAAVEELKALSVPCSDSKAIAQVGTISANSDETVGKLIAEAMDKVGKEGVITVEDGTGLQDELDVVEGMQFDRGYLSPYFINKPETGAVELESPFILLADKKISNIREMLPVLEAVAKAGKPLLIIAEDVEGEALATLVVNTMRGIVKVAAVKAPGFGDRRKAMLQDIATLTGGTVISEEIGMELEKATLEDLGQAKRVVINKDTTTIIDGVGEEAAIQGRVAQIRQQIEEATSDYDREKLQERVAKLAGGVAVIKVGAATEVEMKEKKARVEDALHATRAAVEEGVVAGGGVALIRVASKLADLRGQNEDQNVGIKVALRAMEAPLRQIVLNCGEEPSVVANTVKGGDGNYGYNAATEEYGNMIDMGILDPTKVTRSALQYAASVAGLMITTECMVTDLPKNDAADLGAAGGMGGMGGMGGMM

SMILES	EC50 (DLD-1 cells) [µM]	CC50 at 48 h [2] [µM]	EC50 (HT-29 cells) [µM]	CC50 at 48 h [3] [µM]	Average Selectivity Index (HCT-116 cells)	EC50 (HCT-116 cells; [6]) [µM]	CC50 (FHC cells) [µM]	CC50 (FHs-74Int cells) [µM]	further results
O=C(/C=C/c1cccc([N+](=O)[O-])c1)c1ccc(NC(=O)c2ccco2)cc1 [Compound 4, (E)-N-(4-(3-(3-nitrophenyl)acryloyl)phenyl)furan-2-carboxamide]	39.7	> 100	3.6	54	19.1	4	–	–	IC50 (mHSP60/10; [5]): 0.8 to 9 µM; IC50 (GroEL/ES): 0.8 to 9 µM; cell growth % NCI cancer cell panel (NCI-60 cancer cell panel [1]): largely inactive
COc1ccc(-c2ccc3cc(C(=O)O)ccc3c2)cc1C12CC3CC(CC(C3)C1)C2 [Compound 25, Adapalene, reference compound]	7.9	43.7	5.3	18.5	5.4	5.8	–	–	IC50 (mHSP60/10; [5]): 0.8 to 9 µM; IC50 (GroEL/ES): 0.8 to 9 µM
Oc1c(Cl)cc(Cl)c(Cl)c1Cc1c(O)c(Cl)cc(Cl)c1Cl [Compound 32, Hexachlorophene, reference compound]	–	–	–	–	–	–	–	–	IC50 (mHSP60/10): 0.8 to 9 µM; IC50 (GroEL/ES): 0.8 to 9 µM; EC50 (HCT-116 cells; Homo sapiens, HCT-116, 48 h): 4.6 µM
CN(C)c1ccc(C(=C2C=CC(=[N+](C)C)C=C2)c2ccc(N(C)C)cc2)cc1 [Compound 56, Crystal Violet, reference compound]	0.2	8.6	0.1	1.6	9.4	0.54	–	–	IC50 (mHSP60/10; [5]): 0.8 to 9 µM; IC50 (GroEL/ES): 0.8 to 9 µM; EC50 (HCT-116 cells; AlamarBlue, 48 h with compound): 0.5 µM
CCCCCOc1ccc(/C=C2\Oc3c(ccc(O)c3O)C2=O)c(O)c1 [Compound 86]	23	> 100	5.9	> 100	8.0	12.5	–	–	IC50 (mHSP60/10; [5]): 0.8 to 9 µM; IC50 (GroEL/ES): 0.8 to 9 µM
Oc1cccc(C(Nc2nccs2)c2ccc3cccnc3c2O)c1 (stereo not drawn) [Compound 90]	15	66.6	8.3	64.6	26.2	2.5	–	–	IC50 (mHSP60/10; [5]): 0.8 to 9 µM; IC50 (GroEL/ES): 0.8 to 9 µM
O=C(N/N=C/c1ccc([N+](=O)[O-])o1)c1cccc(Oc2ccccc2)c1 [Compound 128, N′-((5-nitrofuran-2-yl)methylene)-3-phenoxybenzohydrazide]	7.3	61	1.6	60	17.4	3.5	–	–	GI50 (NCI-60 cancer cell panel [4]): 1 to 31 µM; cell growth % NCI cancer cell panel (NCI-60 cancer cell panel [1]): a range of positive, negative, and zero growth
O=C(N/N=C/c1ccc(O)c2ncccc12)c1ccccc1 [Compound 137]	2.8	74	2.5	57	11	6.1	–	–	–
O=C(N/N=C/c1ccc(O)c2ncccc12)c1ccc(O)cc1 [Compound 139, 4-hydroxy-N′-((8-hydroxyquinolin-5-yl)methylene)benzohydrazide]	19	> 100	6.3	56	11	7.4	–	–	GI50 (NCI-60 cancer cell panel [4]): 1 to 5 µM; cell growth % NCI cancer cell panel (NCI-60 cancer cell panel [1]): around 0%
O=C(N/N=C/c1ccc(O)c2ncccc12)c1cccc2ccccc12 [Compound 141]	1.6	46	1.5	60	13	4.1	–	–	–
O=C(N/N=C/c1ccc(O)c2ncccc12)c1ccccc1Oc1ccccc1 [Compound 142]	1.6	71	3.7	87	13	6.3	–	–	–
O=C(N/N=C/c1ccc(O)c2ncccc12)c1cccc(Oc2ccccc2)c1 [Compound 143, N′-((8-hydroxyquinolin-5-yl)methylene)-3-phenoxybenzohydrazide]	–	41	–	21	4.8	6.5	–	–	GI50 (NCI-60 cancer cell panel [4]): 0.2 to 0.4 µM; cell growth % NCI cancer cell panel (NCI-60 cancer cell panel [1]): negative % growth
CCN(CC)S(=O)(=O)c1cccc(C(=O)N/N=C/c2ccc(O)c3ncccc23)c1 [Compound 144]	1.3	34	4.4	59	9.5	4.9	–	–	–
O=C(N/N=C/c1ccc(O)c2ncccc12)c1ccc(NS(=O)(=O)c2cccs2)cc1 [Compound 145]	5.7	24	2.9	6.1	6.2	2.4	–	–	–
O=C(N/N=C/c1ccc(O)c2ncccc12)c1ccc(NS(=O)(=O)c2ccc(Br)cc2)cc1 [Compound 146]	6	59	1.4	91	14	5.2	–	–	–
COc1ccc(C(=O)N/N=C/c2ccc(O)c3ccccc23)cc1 [Compound 148]	–	–	–	–	–	–	> 100	> 100	–
O=C(N/N=C/c1ccc(O)c2ccccc12)c1ccccc1 [Compound 149]	–	–	–	–	–	–	> 100	> 100	–
COc1ccc(C(=O)N/N=C/c2cccc3ncccc23)cc1 [Compound 150]	–	–	–	–	–	–	> 100	> 100	–
O=C(N/N=C/c1cccc2ncccc12)c1ccccc1 [Compound 151]	–	–	–	–	–	–	> 100	> 100	–
COc1ccc(C(=O)N/N=C/c2cccc3ccccc23)cc1 [Compound 152]	–	–	–	–	–	–	> 100	> 100	–
O=C(N/N=C/c1cccc2ccccc12)c1ccccc1 [Compound 153]	–	–	–	–	–	–	≥ 100	> 100	–
COc1ccc(C(=O)N/N=C/c2ccc(O)cc2)cc1 [Compound 154]	–	–	–	–	–	–	> 100	> 100	–
O=C(N/N=C/c1ccc(O)cc1)c1ccccc1 [Compound 155]	–	–	–	–	–	–	> 100	> 100	–
COc1ccc(C(=O)N/N=C/c2ccccc2)cc1 [Compound 156]	–	–	–	–	–	–	> 100	> 100	–
O=C(N/N=C/c1ccccc1)c1ccccc1 [Compound 157]	–	–	–	–	–	–	> 100	> 100	–
Cc1ccc(S(=O)(=O)Nc2ccc(-c3nc4cc(NS(=O)(=O)c5ccc(C)cc5)ccc4o3)cc2)cc1 [Compound 162, 4-methyl-N-(4-(5-((4-methylphenyl)sulfonamido)benzo[d]oxazol-2-yl)phenyl)benzenesulfonamide]	–	–	–	–	–	–	–	–	GI50 (NCI-60 cancer cell panel [4]): 1 to 5 µM; cell growth % NCI cancer cell panel (NCI-60 cancer cell panel [1]): negative % growth
COc1ccccc1S(=O)(=O)Nc1ccc(-c2nc3cc(NS(=O)(=O)c4ccccc4OC)ccc3o2)cc1 [Compound 164, 2-methoxy-N-(4-(5-((2-methoxyphenyl)sulfonamido)benzo[d]oxazol-2-yl)phenyl)benzenesulfonamide]	–	–	–	–	–	–	–	–	GI50 (NCI-60 cancer cell panel [4]): 1 to 5 µM; cell growth % NCI cancer cell panel (NCI-60 cancer cell panel [1]): around 0%
O=C(Nc1ccc(Sc2nc3ccccc3s2)c(Cl)c1)c1cc(Br)ccc1O [Compound 165, N-(4-(Benzo[d]thiazol-2-ylthio)-3-chlorophenyl)-5-bromo-2-hydroxybenzamide]	–	–	–	–	–	–	–	–	GI50 (NCI-60 cancer cell panel [4]): 1 to 5 µM; cell growth % NCI cancer cell panel (NCI-60 cancer cell panel [1]): negative % growth
O=C(N/N=C/c1ccc([N+](=O)[O-])o1)c1ccc(O)cc1 [Nifuroxazide (Nfz), Nifuroxazide, reference compound]	1.5	66	3.5	62	7.7	8.3	–	–	–
